Data from publication PMC12169614, “Exploring Long Arm Amide-Linked Side Chains in the Design of Antifungal Azole Inhibitors of Sterol 14α-Demethylase (CYP51)” (Journal of Medicinal Chemistry, 2025).

Tests used:
[1] = test system: Y570 OE CaCDR1B; experiment: MIC80 determination, strain Y570; format: cell-based, S. cerevisiae
How it was run: (§1)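 MIC80 values rest on three separate experiments, each measuring pools of 4 clones per strain in triplicate. Starting inoculum was OD600 0.005, equivalent to 1.5 × 10^4 CFU; cultures grew at 30 °C, 200 rpm, for 24 h (C. albicans) or 48 h (S. cerevisiae), with OD600 as read-out.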

[2] = test system: Y1; experiment: MIC80 determination, C. albicans clinical isolate Y1; format: cell-based; conditions: Candida albicans, pH 7, 24 h
How it was run: as §1

[3] = test system: Y610 FHB1; experiment: MIC80 determination, C. albicans clinical isolate Y610 FHB1; format: cell-based; conditions: Candida albicans; C. albicans clinical isolate Y610 FHB1 (weakly expresses CaCDR1); pH 7, 24 h
How it was run: as §1

[4] = test system: Y2716 OE CpCYP51 Y132F; experiment: MIC80 determination, strain Y2716; format: cell-based, S. cerevisiae
How it was run: as §1

[5] = test system: Y433 OE CgCDR1; experiment: MIC80 determination, strain Y433; format: cell-based, S. cerevisiae; conditions: Saccharomyces cerevisiae
How it was run: as §1

[6] = test system: Y2769 OE CauCYP51 K143R; experiment: MIC80 determination, strain Y2769; format: cell-based, S. cerevisiae
Experimental: (§2) Cells were seeded at an OD600 nm of 0.005 (1.5 × 10^4 CFU), and the plates were incubated at 30 °C with shaking at 200 rpm for 48 h for S. cerevisiae strains and 24 h for C. albicans . Cell growth was assessed by measuring the OD600 nm using a Synergy 2 multimode plate reader (BioTek Instruments, VT, USA). Each MIC80 was determined using triplicate measurements for pools of 4 clones of each strain in three separate experiments.

[7] = test system: Y2766 OE CauCDR1; experiment: MIC80 determination, strain Y2766; format: cell-based, S. cerevisiae; conditions: Saccharomyces cerevisiae
Experimental: as §2

[8] = test system: 2711 CnCYP51 OE CnCPR; experiment: MIC80 determination, strain 2711; format: cell-based, S. cerevisiae
How it was run: as §1

[9] = test system: Y2651 OE CYP51 F5 RaCPR; experiment: MIC80 determination, strain Y2651; format: cell-based, S. cerevisiae; conditions: Saccharomyces cerevisiae
How it was run: as §1

[10] = test system: Y2747 OE AfCYP51B AfCPR AfERG6; experiment: MIC80 determination, strain Y2747; format: cell-based, S. cerevisiae
How it was run: as §1

[11] = test system: Y2411 azole sensitive control strain; experiment: Agarose (disk) diffusion assay, strain Y2411; format: cell-based, S. cerevisiae; conditions: 10 nmol/disk, 30 °C, 48 h
Text: Final compounds were screened as racemic mixtures using agarose diffusion assays to visualize their inhibitory activity against a panel of recombinant S. cerevisiae strains i.e., S. cerevisiae strains expressing control levels of wild-type CYP51 (ScCYP51), overexpressed wild-type ScCYP51, overexpressed azole-resistant ScCYP51 Y140F/H mutations and overexpressed C. albicans efflux pumps MDR1a or CDR1B (Figure and Table S1).
The susceptibilities of S. cerevisiae and Candida species strains to azole compounds were observed as zones of growth inhibition in agarose diffusion assays. The disk diffusion assays were carried out as described by Keniya et al. Complete supplement mixture (CSM) agarose (0.6% agarose [wt/vol]; 20 mL of synthetic defined medium (SD); pH 6.8–7) was solidified in a rectangular Petri dish which was overlaid with CSM agarose (0.6% [wt/vol]; 5 mL; pH 6.8–7) seeded with yeast cells at an optical density (OD600) of 0.008 (118,000 cells per 1 mL of overlay). Azole compounds (10 nmol/disk) were applied to sterile BBL paper disks (Becton Dickinson Co., Sparks, MD) and placed on solidified overlays. Cell growth was assessed after incubation at 30 °C for 48 h.

[12] = test system: Y2301 ScCYP51 Y140F mutant; experiment: Agarose (disk) diffusion assay, strain Y2301; format: cell-based, S. cerevisiae; conditions: 10 nmol/disk, 30 °C, 48 h
How it was run: (§3)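 Recombinant S. cerevisiae strains seeded at OD600 0.008 in CSM agarose overlay (0.6%, pH 6.8–7) on SD agarose. Racemic compounds applied at 10 nmol/disk on paper disks. Growth-inhibition zones assessed after 48 h at 30 °C.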

[13] = test system: Y2513 ScCYP51 Y140H mutant; experiment: Agarose (disk) diffusion assay, strain Y2513; format: cell-based, S. cerevisiae; conditions: 10 nmol/disk, 30 °C, 48 h
How it was run: as §3

[14] = molecular target: wild-type CaCYP51 (Candida albicans, UniProt P10613); experiment: Reconstituted CYP51 activity assay, wild type; format: biochemical, C. albicans; conditions: 1 μM CaCyp51, 50 μM lanosterol; duplicate, mean ± SD
Chain of wild-type CaCYP51 (P10613 whole entry): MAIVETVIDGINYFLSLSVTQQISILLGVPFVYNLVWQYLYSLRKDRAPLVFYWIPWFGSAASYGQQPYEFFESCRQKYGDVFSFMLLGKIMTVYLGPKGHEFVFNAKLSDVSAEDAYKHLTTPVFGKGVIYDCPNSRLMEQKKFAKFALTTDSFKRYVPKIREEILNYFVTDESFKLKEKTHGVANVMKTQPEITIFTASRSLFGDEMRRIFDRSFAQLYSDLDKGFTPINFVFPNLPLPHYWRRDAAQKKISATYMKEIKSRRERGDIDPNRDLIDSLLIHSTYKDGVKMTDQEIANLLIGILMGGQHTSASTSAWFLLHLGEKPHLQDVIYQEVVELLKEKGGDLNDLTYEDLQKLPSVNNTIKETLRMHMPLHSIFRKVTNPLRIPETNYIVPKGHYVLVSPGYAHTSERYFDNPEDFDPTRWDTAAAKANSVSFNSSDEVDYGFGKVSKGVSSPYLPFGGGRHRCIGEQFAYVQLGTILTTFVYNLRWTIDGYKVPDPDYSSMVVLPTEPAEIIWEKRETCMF
Experimental: The reconstituted CYP51 assay previously described contained 1 μM CaCyp51, 2 μM Homo sapiens cytochrome P450 reductase and 50 μM lanosterol in a final volume of 500 μL. After the addition of azole in DMSO (2.5 μL), reactions were incubated at 37 °C for 10 min prior to initiation by the addition of 100 μL 20 mM β-NADPH-Na4. Sterol substrates and products were extracted with ethyl acetate, derivatized with N,O-bis(trimethylsilyl)-trifluoroacetamide (BSTFA)–trimethylchlorosilane (TMCS) (99:1) in the presence of anhydrous pyridine, and analyzed by GC/MS as described previously. IC50 determinations were performed in duplicate. Nonlinear regression of inhibitor concentration vs normalized response was calculated by GraphPad Prism 10.4.0 for Windows (GraphPad Software, Boston, Massachusetts, USA, www.graphpad.com).

[15] = molecular target: CYP2C9 (Homo sapiens, UniProt P11712); experiment: CYP IC50 profile, CYP2C9; format: biochemical; conditions: human liver drug metabolizing enzyme; read-out: CYP IC50 2C9
Chain of CYP2C9 (P11712 whole entry): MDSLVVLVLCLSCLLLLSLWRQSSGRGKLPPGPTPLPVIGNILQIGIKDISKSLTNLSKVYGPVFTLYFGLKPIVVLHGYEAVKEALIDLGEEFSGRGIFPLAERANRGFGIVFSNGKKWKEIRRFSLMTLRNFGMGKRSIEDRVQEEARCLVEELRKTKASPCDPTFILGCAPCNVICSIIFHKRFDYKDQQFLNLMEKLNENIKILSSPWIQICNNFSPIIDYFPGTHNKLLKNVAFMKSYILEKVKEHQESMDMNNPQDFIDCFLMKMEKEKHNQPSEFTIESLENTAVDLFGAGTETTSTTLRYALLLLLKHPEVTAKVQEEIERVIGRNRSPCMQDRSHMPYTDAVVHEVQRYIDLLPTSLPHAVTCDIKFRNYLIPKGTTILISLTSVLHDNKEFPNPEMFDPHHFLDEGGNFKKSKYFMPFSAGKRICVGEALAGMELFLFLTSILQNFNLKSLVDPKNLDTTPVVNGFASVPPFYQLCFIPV

[16] = test system: MCF-10A cells; experiment: Viability (CellTiter Blue) assay; format: cell-based, human; conditions: 48 h, 10 μM to 1 pM
Experimental: Human epithelial breast cells, MCF-10A, were routinely cultured in DMEM/F-12 (Fisher Scientific, Loughborough, UK) containing 5% heat-inactivated horse serum (ThermoFisher Scientific, UK), 20 ng/mL hEGF (Merck Life Science, Dorset, UK), 500 ng/mL hydrocortisone (Merck Life Science, Dorset, UK) and 10 μg/mL insulin (Merck Life Science, Dorset, UK) under tissue culture conditions (37 °C, 5% CO2 in a humidified incubator). Cells were passaged upon reaching confluency using 0.25% Trypsin/EDTA (Fisher Scientific, Loughborough, UK) for a maximum of 15 passages from defrosting. […].
Cells were seeded in 100 μL of complete medium per well in a black, flat-bottomed, 96-well tissue-culture-treated plate (Fisher Scientific, Loughborough, UK) at a density of 4000 cells/well and incubated under tissue culture conditions for 24 h. Cells were then treated by mixing in an additional 100 μL of drug/diluent control in complete medium to give final concentrations of 10 μM–1 pM. DMSO was used as a vehicle control, and as a positive toxic control, staurosporine was added at a final concentration of 10 μM. Cells were then incubated for 48 h under tissue culture conditions before the treatments were replaced with fresh media before performing the CellTiter Blue assay (Promega, Southampton, UK) was performed following the manufacturer's instructions. […]

For O=C(NCC(O)(Cn1cncn1)c1ccc(F)cc1F)c1ccc(-c2ccc(OC(F)(F)F)cc2)cc1 (stereo not drawn) [Compound 22, N-(2-(2,4-Difluorophenyl)-2-hydroxy-3-(1H-1,2,4-triazol-1-yl)propyl)-4’-(trifluoromethoxy)-[1,1’-biphenyl]-4-carboxamide], the MIC ([1]; Candida albicans, read-out: MIC (nM) C. albicans model Y570) was 5800 nM, the MIC80 ([1]; Saccharomyces cerevisiae, 48 h, pH 6.8) was 5.8 µM and the MIC80 [2] was 0.067 µM. For the same compound, the MIC80 [3] was 0.153 ± 0.067 µM, the “increase in resistance owing to the CpCYP51 Y132F mutation” value ([4]; MIC80 Y2716 versus Y2721) was 2 fold and the MIC80 ([4]; Saccharomyces cerevisiae) was 0.21 ± 0.043 µM. For the same compound, the MIC80 [5] was 5.85 µM, the MIC ([6]; Candidozyma auris, read-out: MIC (nM) C. auris model Y2769) was 225 ± 33 nM and the MIC80 ([6]; Saccharomyces cerevisiae) was 0.225 ± 0.033 µM. The MIC80 [7] was 20.9 µM, the MIC80 ([8]; Saccharomyces cerevisiae) was 0.018 µM and the MIC ([8]; read-out: MIC (nM) C. neoformans model Y2711) was 18 nM. For the same compound, the MIC80 [9] was 1.36 ± 0.907 µM, the MIC ([10]; Aspergillus fumigatus, read-out: MIC (nM) A. fumigatus model Y2747) was 72 ± 29 nM and the MIC80 ([10]; Saccharomyces cerevisiae) was 0.072 ± 0.029 µM. The “zone of growth inhibition (inhibitory activity in words)” value (“zone of growth inhibition” below) [11] was “high potency”, the “zone of growth inhibition” value [12] was “unaffected inhibition zone size” and the “zone of growth inhibition” value [13] was “unaffected inhibition zone size”. For the same compound, the IC50 [14] was 669 nM, the IC50 [15] was > 25000 nM and the “cell viability (tolerance in words)” value [16] was “very well tolerated”.
